Laboratory results published in US20250195448A1, “CELL TYPE SELECTIVE DELIVERY OF EXOSOME CARGO USING NOTCH LIGAND-RECEPTOR SYSTEM” (Northwestern University, priority 2023, published 2025).
“Also recorded” adds a separate entry of the source.

How the values were obtained:
Alix = Alix phosphorylation in Mg^2+-free glycine-treated neurons (IP of Alix, WB p-S/T); type: cell-based, rat; conditions: for effect on Mg^2+-free glycine-induced Alix phosphorylation: H89 20 μM, staurosporine 1 μM, APV 50 μM, KN93 10 μM, AIP 1 μM
Procedure: Neurons were pretreated with DMSO (1:1000) or dynasore (80 μM, Sigma-Aldrich, Cat #SML0340) or H89 (20 μM, Sigma-Aldrich, Cat #B1427) or staurosporine (1 μM, Tocris, Cat #1285) or APV (50 μM, Sigma-Aldrich, Cat #A5282) or KN93 (10 μM, Sigma-Aldrich, Cat #K1385) or AIP (1 μM, Anaspec, Cat #AS-64929) for 30 mins at 37° C. in a humidified 5% CO2 atmosphere incubator. Then, neuron culture medium was carefully removed from dishes. The collected medium was then kept at 37° C. in a humidified 5% CO2 atmosphere incubator. The neurons were washed three times with Veh or Mg^2+-free glycine and incubated for 5 min with solutions containing different inhibitors. Then neurons were washed twice with Veh solution, the saved culture medium was returned and maintained in incubator for assigned durations (37° C., 5% CO2).
WedgeWell™ Tris-Glycine Mini Protein Gels (Fisher Scientific, Cat #XP04125BOX, XP04120BOX and XV00100PK20) were used for electrophoresis. After electrophoresis, proteins were transferred onto nitrocellulose membranes (Thermo Fisher, Cat #4500002). For WB, the membranes were blocked with 10% bovine serum albumin (BSA, Jackson immunoResearch laboratories, Cat #001-000-162) in TBST solution (Tris-buffered saline, 0.1% Tween 20) for one hour in room temperature (RT). Then membranes were incubated with primary antibodies in incubation solution (3% BSA in TBST) overnight at 4° C. with mild agitation. Following primary antibodies were used: mouse anti-Alix (1:1000, Cell Signaling Technology, Cat #2171S, RRID: AB_2299455), rabbit anti-Alix (1:1000, Cell Signaling Technology, Cat #18269, RRID: AB_2798796), mouse anti-Tsg101 (1:1000, Santa Cruz Biotechnology, Cat #sc-7964, RRID: AB_671392), mouse anti-CD81 (1:1000, Santa Cruz Biotechnology, Cat #sc-166029, RRID: AB_2275892), rabbit anti-Notch1ICD (1:1000, Abcam, Cat #ab52627, RRID: AB_881725), rabbit anti-Notch2ICD (1:1000, Cell Signaling Technology, Cat #5732S, RRID: AB_10693319), rabbit anti-activated Notch1 (1:1000, Abcam, Cat #ab52301, RRID: AB_881726), rabbit anti-activated Notch2 (1:1000, MyBioSource, Cat #MBS9410510), rabbit anti-Sdcbp (1:1000, Abcam, Cat #ab19903, RRID: AB_445200 and Cell Signaling Technology, Cat #27964), rabbit anti-GM130 (1:1000, Abcam, Cat #ab52649, RRID: AB_880266), rabbit anti-Hes1 (1:1000, Cell Signaling Technology, Cat #11988S, RRID: AB_2728766 and Abcam, Cat #ab71559, RRID: AB_1209570), chicken anti-Tuj1 (1:2000, Novus Biologicals, Cat #NB100-1612, RRID: AB_10000548), rabbit anti-p-S/T (1:1000, Cell Signaling Technology, Cat #9624S, RRID: AB_331817), mouse anti-PSD95 (1:2000, Thermo Fisher Scientific, Cat #MA1-046, RRID: AB_2092361), rabbit anti-PSD95(pS295) (1:1000, Abcam, Cat #ab76108, RRID: AB_1310621), rabbit anti-GAPDH (1:2000, Cell Signaling Technology, Cat #2118, RRID: AB_561053), rabbit anti-GluA1 (1:1000, EMD Millipore, Cat #PC246, RRID: AB_564636) and guinea pig anti-Bassoon (1:1000, Synaptic Systems, Cat #141 318, RRID: AB_2927388). After 3×10 mins intense wash in TBST solution, membranes were incubated with corresponding secondary antibodies for one hour at RT with mild agitation. Following secondary antibodies were used: goat-anti-rabbit poly-HRP (1:2000, Thermo Scientific, Cat #32260), goat-anti-mouse poly-HRP (1:2000, Thermo Scientific, Cat #32230), goat-anti-chicken HRP (1:2000, Abcam, Cat #ab97135) and Goat anti-Guinea Pig poly-HRP (1:2000, Fisher Scientific, Cat #OB6090-05). […] Fiji (NIH) was used for quantification.

hippocampal neurons = test: Mg^2+-free glycine-induced neuronal EV release; type: cell-based; conditions: for effect on Mg^2+-free glycine-induced EV release: APV 50 μM, H89 20 μM
Procedure: Synaptic NMDARs were activated as previously described^16,63. […] The osmolarity was adjusted to 300-330 mOsm/l). […] The osmolarity was adjusted to 300-330 mOsm/l). […] The EV-containing supernatant was centrifuged at 3000×g for 30 mins at 4° C. to remove residual neurons and large debris. Then, the supernatant was concentrated using a molecular weight cutoff (MWCO) filter (10 KDa, EMD Millipore, Cat #UFC801024) to 0.5 ml. The concentrated solution was then fractionated into 10 fractions (0.5 ml in EV-free PBS, MEDIATECH INC CA, Cat #21-040-CV) using a qE-Voriginal-35 nm SEC column (Izon Science, Cat #SP5-USD) with an automated fraction collector V1 (Izon Science, Cat #AFC-V1). For each experimental group, EVs released from three 60 mm dishes of mouse hippocampal neurons were pooled and enriched by the SEC method as described above. Then take 10 μl of the enriched EVs from each sample and dilute them with 990 μl EV-free PBS. The samples were centrifuged at 2500×g for 15 mins. Mix 0.5 ml of each sample with 0.5 ml incubation solution. Load 70 μl of each mixture to an ExoView Mouse Tetraspanin chip (Nanoview Bioscience, Cat #EV-TETRA-M2) and incubate overnight at RT in dark. The next day, unbound EVs were washed off the chip by five 3-min washes with the solution A. After incubating with the block solution for 1 hr (RT), the chips were incubated with anti-tetraspanin mixture (Included in the kit, anti-CD81, CF® 555, anti-CD9, CF® […] and anti-CD63, CF® 647) for 1 hr on an orbital shaker. The chips were washed with the solution A twice (3 mins each) and the solution B 5 times (3 min each). The chips were then rinsed in MilliQ water to remove excess solution B. Air dry the chips. A NanoView R100 equipment (Nanoview Bioscience) was used to scan the chips. The data was analyzed by ExoView Analyzer 3.1.4 (Nanoview Bioscience). […] Then, neuron culture medium was carefully removed from dishes. […] Then neurons were washed twice with Veh solution, the saved culture medium was returned and maintained in incubator for assigned durations (37° C., 5% CO2).

Notch signaling pathway = test: Pharmacological treatments of neurons, Mg^2+-free glycine-induced Notch activation (WB); type: cell-based, rat; conditions: 90 mins after treatment; for effect on Mg^2+-free glycine-induced elevation of activated-Notch1, -Notch2 and Hes1 protein levels: APV 50 μM, dynasore 80 μM pretreatment
Procedure: Synaptic NMDARs were activated as previously described^16,63. […] The osmolarity was adjusted to 300-330 mOsm/l). […] The osmolarity was adjusted to 300-330 mOsm/l). […] Then, neuron culture medium was carefully removed from dishes. […] Then neurons were washed twice with Veh solution, the saved culture medium was returned and maintained in incubator for assigned durations (37° C., 5% CO2). Neuron samples were collected and resuspended in a RIPA lysis buffer (50 mM Tris, 150 mM NaCl, 0.1% SDS, 1 mM EDTA, 0.5% sodium deoxycholate, 1% Triton X-100, 1× protease inhibitor cocktail (Thermo Fisher Scientific, Cat #78443), 1× phosphatase inhibitor (Thermo Fisher Scientific, Cat #78420), pH 7.4). The resuspended lysates were vortexed for 20 s and then incubated on ice for 30 min and centrifuged at 16,200 g for 15 mins. The supernatants were mixed with 4×SDS loading buffer at a 3:1 ratio. The mixtures were boiled at 95° C. for 5 mins. […] Fiji (NIH) was used for quantification.

neurons = conditions: 30 mins treatment
Procedure: An aliquot of each sample (100 l) was transferred from the culture wells to the wells of a 96-well plate and mixed with 100 μl of the reaction solution provided by the kit. Optical density was measured at 492 nm 45 min later using a Synergy HTX multi-mode microplate reader (Biotek). Background absorbance at 620 nm was subtracted. The maximal releasable LDH in each well was then obtained by a 15 min incubation with 1% Triton X-100 at the end of each experiment.

Notch target genes = conditions: 60 mins after treatment
PSD95 = system: PSD95
Procedure: WedgeWell™ Tris-Glycine Mini Protein Gels (Fisher Scientific, Cat #XP04125BOX, XP04120BOX and XV00100PK20) were used for electrophoresis. After electrophoresis, proteins were transferred onto nitrocellulose membranes (Thermo Fisher, Cat #4500002). For WB, the membranes were blocked with 10% bovine serum albumin (BSA, Jackson immunoResearch laboratories, Cat #001-000-162) in TBST solution (Tris-buffered saline, 0.1% Tween 20) for one hour in room temperature (RT). Then membranes were incubated with primary antibodies in incubation solution (3% BSA in TBST) overnight at 4° C. with mild agitation. […] Fiji (NIH) was used for quantification.

Procedure for rat hippocampal neurons: DIV 18 rat hippocampal neurons in 6-well plate (cover glasses, Carolina, Cat #633037, 1.5×10^6 cells per well) were used for this assay. At DIV 16, neurons were co-transfected with either 1 μg mCherry+GFP or 1 μg mCherry-Alix+GFP plasmids using HilyMax (Dojindo Cat #H357-15). Two days later, the neurons were used for live cell imaging analysis. Neurons (put in a magnetic imaging chamber, Warner Instruments, Cat #QR-40L) were rinsed three times with warm (37° C.) extracellular solution (pH 7.4, 150 mM NaCl, 5 mM KCl, 1 mM MgCl2, 2 mM CaCl2), 10 mM glucose, 10 mM HEPES). Then the neurons were placed into a heating stage (37° C.) supplied with a humidified 5% CO2 atmosphere and were incubated with this solution for 20 mins in a humidified 5% CO2 atmosphere incubator at 37° C. […] Then the extracellular solution was put back. Images were captured using a Nikon A1R+ confocal laser microscope and a 100× oil objective lens (also was kept at 37° C. during recording). […] The data was imported to Fiji (NIH) for further analysis.

Structure (SMILES) | effect on Mg^2+-free glycine-induced Alix phosphorylation (Alix) | effect on Mg^2+-free glycine-induced EV release (hippocampal neurons) | effect on Mg^2+-free glycine-induced elevation of activated-Notch1, -Notch2 and Hes1 protein levels (Notch signaling pathway) | other results
N[C@H](CCCP(=O)(O)O)C(=O)O [APV, D-2-amino-5-phosphonovalerate] | blocked; also recorded: significantly reduced | suppress; also recorded: blocked | inhibited | –
O=C(N/N=C/c1ccc(O)c(O)c1)c1cc2ccccc2cc1O [Dynasore] | – | – | blocked elevation | effect on Mg^2+-free glycine-induced elevation of activated-Notch1, -Notch2 and Hes1 protein levels (Notch signaling pathway; listed as dynasore): inhibited
O=S(=O)(NCCNC/C=C/c1ccc(Br)cc1)c1cccc2cnccc12 [H89] | significantly inhibit; also recorded: inhibited | suppress; also recorded: blocked | – | –
COc1ccc(S(=O)(=O)N(CCO)c2ccccc2CN(C)C/C=C/c2ccc(Cl)cc2)cc1 [KN93] | failed to block | – | – | –
NCC(=O)O [Mg^2+-free glycine, glycine] | – | – | – | Alix phosphorylation after Mg^2+-free glycine stimulation (Alix): leads to Alix phosphorylation; neuronal EV biogenesis and release (hippocampal neurons; Mg^2+-free glycine solution, 30 mins): triggered; plasma membrane rapture (LDH) (neurons): does not cause; Notch target gene expression (Notch target genes): activated; dendritic spine enlargement (rat hippocampal neurons): enlarged dendritic spines; levels of activated-Notch1, -Notch2 and Hes1 after Mg^2+-free glycine treatment (Notch signaling pathway; WB): elevated; phosphorylation of Ser295 (pS295) in PSD95 (PSD95): induces
CN[C@@H]1C[C@H]2O[C@@](C)([C@@H]1OC)n1c3ccccc3c3c4c(c5c6ccccc6n2c5c31)C(=O)NC4 [Stau, staurosporine] | not significant | – | – | –
